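1) Cells in 96-well plates. 2) Compound, 48 h, 5 concentrations. 3) Linear interpolation between surrounding doses. 4) Unreached endpoint = highest concentration. At the GI50, growth is halved.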 Active and inactive are the calls of the source. No stated cut-off is given here; in the data, active = GI50 up to about 1.1 µM and inactive = higher. Some results are limits rather than exact numbers.

Test systems include HCT-116; SW-620; SK-MEL-28; LOX IMVI; OVCAR-4; M14; IGROV-1; SNB-75; 786-0; SF-539; OVCAR-5; HT-29; K562; CCRF-CEM; SK-MEL-2; HCT-15; A498; MDA-MB-435; U-251; MDA-N.
Holding throughout (assay): growth of human tumour cells (NCI), 48 h

Regarding `CC(C)O/N=C/c1cc(NC(=S)OC(C)C)ccc1Cl`, the GI50 in the experiment on HCT-116 is 23.3 µM (inactive); with SW-620 it was 45.2 µM (inactive); in the experiment on SK-MEL-28 it was > 62.2 µM (inactive); in the experiment on LOX IMVI, 28.1 µM (inactive); in the experiment with OVCAR-4, 31.7 µM (inactive); in the experiment on M14, 62.7 µM (inactive). The GI50 in the experiment with IGROV-1 was 28.2 µM (inactive); in the experiment with SNB-75, 18.5 µM (inactive); in the experiment with 786-0, 33.3 µM (inactive); in the experiment on SF-539, 24.8 µM (inactive); in the experiment on OVCAR-5, 48.6 µM (inactive); with HT-29, 23.1 µM (inactive). The GI50 with K562 is 29.4 µM (inactive); with CCRF-CEM, 13.5 µM (inactive); with SK-MEL-2 it was 26 µM (inactive); in the experiment on HCT-15, 36.9 µM; in the experiment with A498, 44.7 µM (inactive); in the experiment on MDA-MB-435 it was > 61.4 µM (inactive). Also, the GI50 with U-251 is 32.2 µM (inactive); in the experiment on MDA-N, > 69.5 µM (inactive).
On to `O=C(O)c1nc2nc(Cl)c(Cl)nc2[nH]1`, for which the GI50 in the experiment on HCT-116, in the experiment with SW-620, with SK-MEL-28, in the experiment on LOX IMVI, with OVCAR-4 and in the experiment with M14 was > 100 µM (inactive) throughout. For the same molecule, the GI50 in the experiment with IGROV-1, with SNB-75, with 786-0, in the experiment on SF-539, in the experiment with OVCAR-5 and in the experiment on HT-29 was > 100 µM (inactive) in each case. Also, the GI50 with K562 is > 100 µM (inactive); in the experiment on CCRF-CEM, > 100 µM (inactive); in the experiment with SK-MEL-2 it was > 100 µM (inactive); in the experiment on HCT-15, above 100 µM; with A498, > 100 µM (inactive); with MDA-MB-435, > 100 µM (inactive). Also, the GI50 in the experiment with U-251 and in the experiment with MDA-N was > 100 µM (inactive) each time.
For the molecule `Cc1ccc(NC(c2ccccc2)P(=O)(c2ccccc2)c2ccccc2)cc1` (stereo not given), the GI50 with HCT-116, with SW-620, in the experiment on SK-MEL-28, in the experiment on LOX IMVI, in the experiment on OVCAR-4 and in the experiment on M14 was > 100 µM (inactive) in each case. Also, the GI50 was > 100 µM (inactive) in the experiment on IGROV-1; 13.7 µM (inactive) in the experiment with SNB-75; 95.1 µM (inactive) in the experiment on 786-0; > 100 µM (inactive) in the experiment with SF-539; > 100 µM (inactive) in the experiment with OVCAR-5; > 100 µM (inactive) in the experiment on HT-29. In addition, the GI50 in the experiment on K562 is 34.4 µM (inactive); in the experiment on CCRF-CEM, > 10 µM (inactive); in the experiment with SK-MEL-2 it was 39.6 µM (inactive); in the experiment on HCT-15 it was above 100 µM; with A498 it was > 100 µM (inactive); with MDA-MB-435, > 100 µM (inactive). In addition, the GI50 in the experiment on U-251 and in the experiment on MDA-N was > 100 µM (inactive) in each case.
For `CNC(=S)NN=C1NCCCN1`, the GI50 in the experiment with HCT-116, in the experiment on SW-620, with SK-MEL-28, with LOX IMVI, in the experiment on OVCAR-4 and in the experiment on M14 was > 100 µM (inactive) each time. Further, the GI50 in the experiment on IGROV-1, with SNB-75, in the experiment with 786-0, in the experiment on SF-539, with OVCAR-5 and in the experiment on HT-29 was > 100 µM (inactive) in each case. The GI50 in the experiment with K562 is > 100 µM (inactive); in the experiment with CCRF-CEM, > 100 µM (inactive); in the experiment with SK-MEL-2, > 100 µM (inactive); with HCT-15 it was above 100 µM; with A498, > 100 µM (inactive); in the experiment on MDA-MB-435 it was > 100 µM (inactive). The GI50 with U-251 and in the experiment on MDA-N was > 100 µM (inactive) throughout.
Regarding `CCOC(=O)C(=Cc1ccccc1Cl)C(=O)OCC`, the GI50 is 0.558 µM (active) in the experiment with HCT-116; 1.32 µM (inactive) in the experiment with SW-620; 1.94 µM (inactive) in the experiment on SK-MEL-28; 1.75 µM (inactive) in the experiment on LOX IMVI; 2.27 µM (inactive) with OVCAR-4; 1.5 µM (inactive) in the experiment on M14. In addition, the GI50 in the experiment on IGROV-1 is 3.49 µM (inactive); in the experiment with SNB-75 it was 0.0174 µM (active); in the experiment on 786-0, 1.34 µM (inactive); with SF-539 it was 2.1 µM (inactive); in the experiment with OVCAR-5 it was 1.88 µM (inactive); with HT-29 it was 1.43 µM (inactive). For the same molecule, the GI50 with K562 was 1.15 µM (inactive); in the experiment on CCRF-CEM, 0.705 µM (active); in the experiment on SK-MEL-2 it was 2.03 µM (inactive); in the experiment on HCT-15, 1.72 µM; with A498, 2.92 µM (inactive); in the experiment with MDA-MB-435 it was 1.13 µM (inactive). Also, the GI50 with U-251 is 1.63 µM (inactive); with MDA-N, 1.12 µM (active).
Regarding `CN(C)CCNC1=CC(=O)c2c(O)ccc(O)c2C1=O`, the GI50 in the experiment with HCT-116 was 2.8 µM (inactive); with SW-620, 3.3 µM (inactive); in the experiment on SK-MEL-28, 12.2 µM (inactive); in the experiment on LOX IMVI, 3.39 µM (inactive); in the experiment on OVCAR-4 it was 4.54 µM (inactive); in the experiment with M14 it was 3.23 µM (inactive). Moreover, the GI50 is 6.17 µM (inactive) in the experiment with IGROV-1; 17.1 µM (inactive) in the experiment with SNB-75; 4.7 µM (inactive) in the experiment with 786-0; 7.1 µM (inactive) in the experiment on SF-539; 14.2 µM (inactive) in the experiment with OVCAR-5; 2.59 µM (inactive) in the experiment with HT-29. The GI50 in the experiment on K562 was 2.52 µM (inactive); with CCRF-CEM, 3.94 µM (inactive); with SK-MEL-2, 8.95 µM (inactive); in the experiment with HCT-15 it was 4.08 µM; with A498, 14.8 µM (inactive); with MDA-MB-435, 1.8 µM (inactive). The GI50 with U-251 was 11.9 µM (inactive); in the experiment with MDA-N, 1.97 µM (inactive).
For the molecule `O=S(=O)(O)c1ccc2c(/N=N/c3c(O)ccc4ccccc34)cccc2c1`, the GI50 in the experiment with HCT-116, in the experiment with SW-620, in the experiment with SK-MEL-28, in the experiment on LOX IMVI, with OVCAR-4 and in the experiment on M14 was > 100 µM (inactive) each time. Further, the GI50 in the experiment with IGROV-1 is 65.8 µM (inactive); with SNB-75 it was > 100 µM (inactive); in the experiment with 786-0 it was > 100 µM (inactive); in the experiment on SF-539 it was > 100 µM (inactive); in the experiment with OVCAR-5 it was > 100 µM (inactive); in the experiment with HT-29 it was > 100 µM (inactive). Besides, the GI50 was 34.3 µM (inactive) in the experiment with K562; 70.6 µM (inactive) in the experiment with CCRF-CEM; > 100 µM (inactive) in the experiment with SK-MEL-2; above 100 µM with HCT-15; > 100 µM (inactive) in the experiment with A498; > 100 µM (inactive) with MDA-MB-435. For the same molecule, the GI50 with U-251 and in the experiment with MDA-N was > 100 µM (inactive) throughout.

Source of the values: ChEMBL document CHEMBL1201862, “PubChem BioAssay data set” (2004).
